# Tests used:
# Aromatase [1] = biological target: T1, Aromatase (Homo sapiens, UniProt P11511)
# T1 sequence (P11511 whole entry): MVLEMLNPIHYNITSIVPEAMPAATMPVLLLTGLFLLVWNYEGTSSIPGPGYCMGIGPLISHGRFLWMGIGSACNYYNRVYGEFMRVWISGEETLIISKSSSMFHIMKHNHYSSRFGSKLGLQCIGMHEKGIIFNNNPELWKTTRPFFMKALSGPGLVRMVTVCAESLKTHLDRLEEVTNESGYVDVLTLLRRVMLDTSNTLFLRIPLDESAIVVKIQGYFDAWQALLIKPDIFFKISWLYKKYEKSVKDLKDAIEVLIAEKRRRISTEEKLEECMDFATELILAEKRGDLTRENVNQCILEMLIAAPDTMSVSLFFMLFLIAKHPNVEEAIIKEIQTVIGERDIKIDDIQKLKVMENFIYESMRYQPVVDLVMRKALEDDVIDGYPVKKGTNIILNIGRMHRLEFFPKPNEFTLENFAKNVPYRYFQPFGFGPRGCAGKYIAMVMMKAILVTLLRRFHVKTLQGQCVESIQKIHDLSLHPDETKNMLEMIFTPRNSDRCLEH
# Description: Inhibition of cytochrome P450 19A1 of human placental microsomes with [1-beta,2beta-3H]testosterone
# [2] = biological target: T2, Cytochrome P450 17A1 (steroid 17-alpha-hydroxylase/17,20 lyase) (Rattus norvegicus, UniProt P11715); experiment: Inhibition Cytochrome P450 17A1 of rat testicular microsomes at 2.5 uM with 25 uM progesterone; conditions: probe progesterone (25 uM)
# T2 sequence (P11715 whole entry): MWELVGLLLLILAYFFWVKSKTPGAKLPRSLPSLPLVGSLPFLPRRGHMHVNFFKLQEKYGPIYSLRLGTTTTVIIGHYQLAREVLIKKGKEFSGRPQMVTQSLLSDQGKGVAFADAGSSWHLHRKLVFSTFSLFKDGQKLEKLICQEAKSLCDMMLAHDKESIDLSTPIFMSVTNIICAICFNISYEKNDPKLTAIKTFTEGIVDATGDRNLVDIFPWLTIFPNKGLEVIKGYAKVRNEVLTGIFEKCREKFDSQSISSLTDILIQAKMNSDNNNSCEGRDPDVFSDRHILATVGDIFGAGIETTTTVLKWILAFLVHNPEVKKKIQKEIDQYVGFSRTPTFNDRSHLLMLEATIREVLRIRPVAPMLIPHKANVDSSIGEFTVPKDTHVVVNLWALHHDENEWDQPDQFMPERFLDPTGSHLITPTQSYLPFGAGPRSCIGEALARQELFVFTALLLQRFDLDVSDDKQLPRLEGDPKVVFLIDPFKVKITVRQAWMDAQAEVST
# Aromatase [3] = biological target: T1, Aromatase; experiment: In vitro inhibition of cytochrome P450 19A1 from human placental microsomes with 2.5 uM [1-beta,2beta-3H]testosterone
# Aromatase [4] = biological target: T1, Aromatase; experiment: Relative potency as IC50 compared to aminoglutethimide IC50=[…] uM
SMILES,IC50 (Aromatase [1]),inhibition at 2.5 µM [2],IC50 (Aromatase [3]),Relative potency (Aromatase [4])
CCn1ccc2cccc(C(c3ccc(Br)cc3)n3ccnc3)c21 (stereo unspecified),0.07 µM,29%,–,–
CCN1CCc2cc(Br)cc(C(c3ccc(F)cc3)n3ccnc3)c21 (stereo unspecified),0.09 µM,8%,–,–
CCn1ccc2cccc(C(c3cccc(Cl)c3)n3ccnc3)c21 (stereo unspecified),–,43%,–,–
CCN1CCc2cc(Cl)cc(C(c3ccc(F)cc3)n3ccnc3)c21 (stereo unspecified),–,23%,–,–
CCn1ccc2cccc(C(c3ccc(Cl)cc3)n3ccnc3)c21 (stereo unspecified),–,29%,–,–
CCn1ccc2cc(Br)cc(C(c3ccc(F)cc3)n3ccnc3)c21 (stereo unspecified),0.2 µM,9%,–,–
CCN1CCc2cccc(C(c3ccc(F)cc3)n3cncn3)c21 (stereo unspecified),2.9 µM,–,–,10

# The remaining lines, values ahead:
IC50 (Aromatase [1]),inhibition at 2.5 µM [2],IC50 (Aromatase [3]),Relative potency (Aromatase [4]),SMILES
–,38%,–,–,CCN1CCc2cccc(C(c3cccc(Cl)c3)n3ccnc3)c21 (stereo unspecified)
–,37%,0.0615 µM,–,CCN1CCc2cccc(C(c3ccc(F)cc3)n3ccnc3)c21 (stereo unspecified)
0.062 µM,37%,–,–,CCn1ccc2cccc(C(c3ccc(F)cc3)n3ccnc3)c21 (stereo unspecified)

# Source: ChEMBL document CHEMBL1136431, “Preparation and pharmacological profile of 7-(alpha-azolylbenzyl)-1H-indoles and indolines as new aromatase inhibitors” (Bioorg Med Chem Lett, 2003)
